# According to patent US20180099931A1 (AbbVie S.à.r.l., priority 2016, published 2018):
# Like-named read-outs stand apart in the source and are kept apart here.
# Target: T1, F508delCFTR (Homo sapiens, UniProt P13569, DEL508-508)
# T1 construct: expressed in transfected cells; host or cells: CFBE41o- human lung-derived epithelial cells (CFBE4lo-F508delCFTR-HRP), doxycycline-inducible
# Assay: Cell Surface Expression-Horse Radish Peroxidase (CSE-HRP) Assay;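 as to Maximum % activity (with co-corrector): co-corrector and positive control are both the same reference corrector at 2 µM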;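 as to Maximum % activity (without co-corrector): percent of the 2 µM on-plate positive control corrector response above DMSO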
# Type: cell-based
# Conditions: for Maximum % activity (with co-corrector) / Emax: maximum at any tested concentration, normalized to on-plate positive control; for Emax: read-out: Maximum % activity (without co-corrector)
# [1] = test compound without co-corrector, read-out: EC50 (without co-corrector)
# [2] = with co-corrector (2 μM of 3-[(2R,4R)-4-({[1-(2,2-difluoro-1,3-benzodioxol-5-yl)cyclopropyl]carbonyl}amino)-7-methoxy-3,4-dihydro-2H-chromen-2-yl]benzoic acid), read-out: EC50 (with co-corrector)
# [3] = CSE-HRP, test compound without co-corrector, read-out: EC50 (without co-corrector)
# [4] = CSE-HRP, with co-corrector (2 μM of 3-[(2R,4R)-4-({[1-(2,2-difluoro-1,3-benzodioxol-5-yl)cyclopropyl]carbonyl}amino)-7-methoxy-3,4-dihydro-2H-chromen-2-yl]benzoic acid), read-out: EC50 (with co-corrector)
# [5] = CSE-HRP, with co-corrector (2 μM)
# [6] = test compound without co-corrector
# [7] = with co-corrector (2 μM of 3-[(2R,4R)-4-({[1-(2,2-difluoro-1,3-benzodioxol-5-yl)cyclopropyl]carbonyl}amino)-7-methoxy-3,4-dihydro-2H-chromen-2-yl]benzoic acid)
# T1 sequence (P13569 with tags, fused parts or gaps DEL508-508): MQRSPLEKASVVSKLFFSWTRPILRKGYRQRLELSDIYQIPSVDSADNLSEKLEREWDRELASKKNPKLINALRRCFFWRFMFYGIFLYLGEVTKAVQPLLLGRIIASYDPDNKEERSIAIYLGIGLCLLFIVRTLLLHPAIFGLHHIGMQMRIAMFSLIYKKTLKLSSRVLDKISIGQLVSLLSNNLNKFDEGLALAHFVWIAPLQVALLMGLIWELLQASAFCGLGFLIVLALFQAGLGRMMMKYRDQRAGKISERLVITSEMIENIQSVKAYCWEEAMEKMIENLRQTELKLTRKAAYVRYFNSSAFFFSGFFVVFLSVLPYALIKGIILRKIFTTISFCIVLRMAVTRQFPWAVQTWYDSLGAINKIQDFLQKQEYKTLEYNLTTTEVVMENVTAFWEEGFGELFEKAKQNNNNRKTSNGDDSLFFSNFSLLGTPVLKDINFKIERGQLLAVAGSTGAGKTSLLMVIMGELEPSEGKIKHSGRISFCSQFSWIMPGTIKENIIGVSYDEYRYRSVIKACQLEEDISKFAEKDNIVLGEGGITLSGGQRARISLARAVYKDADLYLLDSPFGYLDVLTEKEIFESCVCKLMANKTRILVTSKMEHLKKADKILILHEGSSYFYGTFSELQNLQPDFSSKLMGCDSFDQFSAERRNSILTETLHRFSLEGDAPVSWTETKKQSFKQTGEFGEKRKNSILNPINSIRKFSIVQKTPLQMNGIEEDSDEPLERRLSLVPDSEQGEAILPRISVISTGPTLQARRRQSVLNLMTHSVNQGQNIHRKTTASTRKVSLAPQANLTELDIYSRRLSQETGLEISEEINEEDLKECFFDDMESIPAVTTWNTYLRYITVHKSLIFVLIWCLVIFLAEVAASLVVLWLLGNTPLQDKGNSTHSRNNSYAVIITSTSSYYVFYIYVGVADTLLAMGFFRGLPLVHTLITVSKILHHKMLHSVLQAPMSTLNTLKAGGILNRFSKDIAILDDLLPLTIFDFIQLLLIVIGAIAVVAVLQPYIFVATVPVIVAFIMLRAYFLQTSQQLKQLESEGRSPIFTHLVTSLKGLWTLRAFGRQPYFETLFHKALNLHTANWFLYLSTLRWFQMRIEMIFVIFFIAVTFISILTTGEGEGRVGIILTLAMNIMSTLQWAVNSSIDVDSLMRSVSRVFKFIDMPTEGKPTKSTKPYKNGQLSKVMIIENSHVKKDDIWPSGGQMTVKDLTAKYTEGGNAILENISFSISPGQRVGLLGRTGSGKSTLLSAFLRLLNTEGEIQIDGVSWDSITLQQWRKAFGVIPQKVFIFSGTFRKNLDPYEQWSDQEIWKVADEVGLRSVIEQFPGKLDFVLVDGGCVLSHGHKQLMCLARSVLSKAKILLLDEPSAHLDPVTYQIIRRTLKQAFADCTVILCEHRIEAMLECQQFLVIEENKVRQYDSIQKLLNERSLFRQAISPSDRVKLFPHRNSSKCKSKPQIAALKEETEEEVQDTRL
EC50 [1],EC50 [2],Maximum % activity (with co-corrector) (with co-corrector (2 μM)),Emax (without co-corrector),EC50 [3],EC50 [4],Maximum % activity (with co-corrector) [5],"Emax (CSE-HRP, without co-corrector)",Emax [6],Maximum % activity (with co-corrector) [7],SMILES
,,,,1000 to 10000 nM,1000 to 10000 nM,+++ (≥350),100 to 200%,,,COc1cc(C(F)(F)F)ccc1CN[C@@H]1[C@@H](C(C)(C)OC)[C@H](C(=O)O)N(C(=O)C2CCCCC2)[C@@H]1c1ccccc1 (racemic) [II-88]
1000 to 10000 nM,1000 to 10000 nM,++ (≥150 and <350),,,,,,< 100%,,"COc1cc(C(F)(F)F)ccc1CN[C@@H]1[C@@H](C(C)(C)C)[C@H](C(=O)O)N(C(=O)C(C)c2ccccc2)[C@@H]1c1ccccc1 (single isomer, unassigned) [III-112]"
,,,,1000 to 10000 nM,1000 to 10000 nM,++ (≥150 and <350),< 100%,,,COc1ccc(F)c(CN[C@H]2[C@H](C(C)(C)C)[C@@H](C(=O)O)N(C(=O)C3CCCCC3)[C@H]2c2ccccc2)c1 [II-106]
< 1000 nM,< 1000 nM,,,,,,,100 to 200%,+++ (≥350),COc1ccc(C(C)(C)C)cc1CN[C@H]1[C@H](C(C)(C)C)[C@@H](C(=O)O)N(C(=O)c2ccc(Oc3ccccc3)cc2)[C@H]1c1cccnc1N(C)C [II-464]
,,,,1000 to 10000 nM,< 1000 nM,+++ (≥350),> 200%,,,COc1ccc(C(C)(C)C)cc1CN[C@H]1[C@H](C(C)(C)C)[C@@H](C(=O)O)N(C(=O)Cc2cc(C)sc2C)[C@H]1c1ccccc1 [II-208]
> 10000 nM,1000 to 10000 nM,,,,,,,< 100%,++ (≥150 and <350),CC(C)(C)[C@@H]1[C@@H](NCc2cccc(Cl)c2O)[C@@H](c2ccccc2)N(C(=O)C2CCCCC2)[C@H]1C(=O)O (racemic) [III-9]
> 10000 nM,1000 to 10000 nM,++ (≥150 and <350),,,,,,< 100%,,CC(C)(C)[C@H]1[C@H](NCc2ccc(Cl)c(Cl)c2)[C@H](c2ccccc2)N(C(=O)C2CCCCC2)[C@@H]1C(=O)O [III-130]
> 10000 nM,1000 to 10000 nM,,,,,,,< 100%,++ (≥150 and <350),CCS(=O)(=O)NC(=O)[C@H]1[C@H](C(C)(C)C)[C@@H](Nc2cc(C(F)(F)F)cc(C)n2)[C@@H](c2ccccc2)N1C(=O)C1CCCCC1 (racemic) [III-53]
< 1000 nM,< 1000 nM,,,,,,,100 to 200%,+++ (≥350),COc1nc(C(C)(C)C)ccc1CN[C@H]1[C@H](C(C)(C)C)[C@@H](C(=O)O)N(C(=O)Cc2ccccc2C)[C@H]1c1ccccc1 [II-429]
> 10000 nM,1000 to 10000 nM,,,,,,,< 100%,++ (≥150 and <350),O=C(O)[C@@H]1N(C(=O)C2CCCCC2)[C@H](c2ccccc2)[C@H](NCc2ccccc2OC(F)F)C12CC2 (racemic) [III-57]
> 10000 nM,1000 to 10000 nM,,,,,,,< 100%,++ (≥150 and <350),COc1cccc(CN[C@@H]2[C@@H](C(C)(C)C)[C@H](C(=O)O)N(C(=O)C3CCCCC3)[C@@H]2c2ccccc2)c1 (racemic) [III-14]
1000 to 10000 nM,1000 to 10000 nM,,,,,,,100 to 200%,+++ (≥350),COc1ncc(C2CCC2)cc1CN[C@H]1[C@H](C(C)(C)C)[C@@H](C(=O)O)N(C(=O)[C@@H]2CCCO2)[C@H]1c1ccccc1C(F)F [II-597]
1000 to 10000 nM,1000 to 10000 nM,,,,,,,< 100%,++ (≥150 and <350),COc1ccc(OC)c(CN[C@@H]2[C@@H](C(C)(C)C)[C@H](C(=O)O)N(C(=O)C3CCCCC3)[C@@H]2c2ccccc2)c1 (racemic) [III-11]
1000 to 10000 nM,< 1000 nM,+++ (≥350),,,,,,100 to 200%,,COc1ccc(C(C)(C)C)cc1CN[C@H]1[C@H](C(C)(C)C)[C@@H](C(=O)O)N(C(=O)c2cnn(-c3cccc(C)c3)c2C(C)C)[C@H]1c1ccccc1 [III-194]
,,,,< 1000 nM,1000 to 10000 nM,+++ (≥350),< 100%,,,COc1cc(CN[C@H]2[C@H](C(C)(C)C)[C@@H](C(=O)O)N(C(=O)C3CCCCC3)[C@H]2c2ccccc2)c(Br)cc1F [II-114]

# Further lines, the compound ahead of its results:
SMILES,EC50 [1],EC50 [2],Maximum % activity (with co-corrector) (with co-corrector (2 μM)),Emax (without co-corrector),EC50 [3],EC50 [4],Maximum % activity (with co-corrector) [5],"Emax (CSE-HRP, without co-corrector)",Emax [6],Maximum % activity (with co-corrector) [7]
"COc1ccc(C(C)(C)C)cc1CN[C@H]1[C@H](C(C)(C)C)[C@@H](C(=O)O)N(C(=O)C2CC(C)(C)OC(C)(C)C2)[C@H]1c1ccccc1 [Example 54, (2S,3S,4S,5S)-3-tert-butyl-4-{[(5-tert-butyl-2-methoxyphenyl)methyl]amino}-5-phenyl-1-(2,2,6,6-tetramethyloxane-4-carbonyl)pyrrolidine-2-carboxylic acid]",1000 to 10000 nM,< 1000 nM,+++ (≥350),> 200%,,,,,,
COc1ccc(C(F)(F)F)cc1CN[C@H]1[C@H](C(C)(C)C)[C@@H](C(=O)O)N(C(=O)[C@H](OC)c2ccccc2)[C@H]1c1ccccc1 [Example I-20],1000 to 10000 nM,< 1000 nM,+++ (≥350),> 200%,,,,,,
"COc1ccc(C(F)(F)F)cc1CN[C@H]1[C@H](C(C)(C)C)[C@@H](C(=O)O)N(C(=O)C2CCCCC2)[C@H]1c1ccccc1 [Example 9, (2S,3S,4S,5S)-3-tert-butyl-1-(cyclohexanecarbonyl)-4-({[2-methoxy-5-(trifluoromethyl)phenyl]methyl}amino)-5-phenylpyrrolidine-2-carboxylic acid]",< 1000 nM,< 1000 nM,+++ (≥350),100 to 200%,,,,,,
"COc1ncc(C2CCC2)cc1CN[C@H]1[C@H](C(C)(C)C)[C@@H](C(=O)O)N(C(=O)C2CCCCC2)[C@H]1c1ccccc1C(C)C [Example 117, (2S,3S,4S,5S)-3-tert-butyl-4-{[(5-cyclobutyl-2-methoxypyridin-3-yl)methyl]amino}-1-(cyclohexanecarbonyl)-5-[2-(propan-2-yl)phenyl]pyrrolidine-2-carboxylic acid]",< 1000 nM,< 1000 nM,+++ (≥350),> 200%,,,,,,
COc1ncc(C2CCC2)cc1CN[C@H]1[C@H](C(C)(C)C)[C@@H](C(=O)O)N(C(=O)[C@@H]2CCCCO2)[C@H]1c1ccccc1C1CC1 [Example I-296],,,,,1000 to 10000 nM,1000 to 10000 nM,+++ (≥350),> 200%,,
COc1ccc(C(C)(C)C)cc1CN[C@H]1[C@H](C(C)(C)C)[C@@H](C(=O)O)N(C(=O)[C@@H]2CCCCO2)[C@H]1c1cccnc1OC [Example I-209],1000 to 10000 nM,1000 to 10000 nM,+++ (≥350),> 200%,,,,,,
"COc1ncc(C(F)(F)F)cc1CN[C@H]1[C@H](C(C)(C)C)[C@@H](C(=O)O)N(C(=O)[C@@H]2CCCCO2)[C@H]1c1ccccc1 [Example 21, (2S,3S,4S,5S)-3-tert-butyl-4-({[2-methoxy-5-(trifluoromethyl)pyridin-3-yl]methyl}amino)-1-[(2S)-oxane-2-carbonyl]-5-phenylpyrrolidine-2-carboxylic acid]",1000 to 10000 nM,1000 to 10000 nM,+++ (≥350),100 to 200%,,,,,,
COc1ccc(C(F)(F)F)cc1CN[C@H]1[C@H](C23CC(C2)C3)[C@@H](C(=O)O)N(C(=O)C2CCCCC2)[C@H]1c1ccccc1 [Example 56],1000 to 10000 nM,< 1000 nM,+++ (≥350),100 to 200%,,,,,,
